The text below walks through data of ChEMBL document CHEMBL3397034, “Environmentally benign synthesis, molecular properties prediction and anti-inflammatory activity of novel isoxazolo[5,4-d]isoxazol-3-yl-aryl-methanones via vinylogous Henry nitroaldol adducts as synthons” (2015).

Each structure is given as a SMILES string.

Type in all cases: functional
Experiment [1] concerns Rattus norvegicus. The experiment in a line: Anti-inflammatory activity in Wistar rat assessed as reduction in carrageenan induced paw edema by measuring paw volume as ml of Hg at 100 mg/kg, po administered 30 mins before carrageenan challenge measured 4 hrs post carrageenan challenge (reference value: 0.36 +/- 0.3 ml of Hg). For orientation: The carrageenan paw model is a standard test of acute inflammation.

Experiment [2] concerns Rattus norvegicus. The experiment in a line: Anti-inflammatory activity in Wistar rat assessed as reduction in carrageenan induced paw edema by measuring paw volume as ml of Hg at 100 mg/kg, po administered 30 mins before carrageenan challenge measured 1 hr post carrageenan challenge (reference value: 0.36 +/- 0.3 ml of Hg).
Experiment [3] relates to Rattus norvegicus. Put plainly: Anti-inflammatory activity in Wistar rat assessed as reduction in carrageenan induced paw edema by measuring paw volume as ml of Hg at 100 mg/kg, po administered 30 mins before carrageenan challenge measured 6 hrs post carrageenan challenge (reference value: 0.36 +/- 0.3 ml of Hg).
Experiment [4] has as its system Rattus norvegicus. The experiment in a line: Anti-inflammatory activity in Wistar rat assessed as reduction in carrageenan induced paw edema by measuring paw volume as ml of Hg at 100 mg/kg, po administered 30 mins before carrageenan challenge measured 2 hrs post carrageenan challenge (reference value: 0.36 +/- 0.3 ml of Hg).

On to `Cc1noc2c(C(=O)c3ccccc3[N+](=O)[O-])noc12`, for which the Activity in the experiment on Rattus norvegicus [1] turned out to be 0.81 mL; with Rattus norvegicus [2], 0.75 mL; in the experiment on Rattus norvegicus [3], 0.63 mL; in the experiment with Rattus norvegicus [4], 0.83 mL.
Consider `Cc1noc2c(C(=O)c3ccccc3Cl)noc12`, for which the Activity amounted to 0.51 mL with Rattus norvegicus [1], 0.51 mL in the experiment with Rattus norvegicus [2], 0.5 mL in the experiment with Rattus norvegicus [3] and 0.68 mL in the experiment on Rattus norvegicus [4].
With `Cc1noc2c(C(=O)c3ccccc3O)noc12`, the Activity in the experiment on Rattus norvegicus [1] was found to be 0.8 mL; with Rattus norvegicus [2], 0.82 mL; with Rattus norvegicus [3], 0.61 mL; in the experiment on Rattus norvegicus [4], 0.93 mL.
For `Cc1noc2c(C(=O)c3ccc(Cl)cc3)noc12`, the Activity in the experiment on Rattus norvegicus [1] was found to be 0.67 mL; in the experiment with Rattus norvegicus [2] it was 0.53 mL; with Rattus norvegicus [3], 0.41 mL; with Rattus norvegicus [4], 0.65 mL.
Consider `Cc1noc2c(C(=O)c3ccc(Br)cc3)noc12`, for which the Activity was 0.54 mL with Rattus norvegicus [1], 0.52 mL in the experiment on Rattus norvegicus [2], 0.32 mL with Rattus norvegicus [3] and 0.69 mL in the experiment on Rattus norvegicus [4].
For `COc1ccc(C(=O)c2noc3c(C)noc23)cc1`, the Activity in the experiment on Rattus norvegicus [1] amounted to 0.83 mL; in the experiment on Rattus norvegicus [2], 0.78 mL; in the experiment on Rattus norvegicus [3], 0.62 mL; in the experiment on Rattus norvegicus [4], 0.7 mL.
Consider `Cc1noc2c(C(=O)c3ccccc3)noc12`, for which the Activity in the experiment on Rattus norvegicus [1] came out at 0.82 mL; with Rattus norvegicus [2], 0.8 mL; with Rattus norvegicus [3] it was 0.63 mL; in the experiment on Rattus norvegicus [4], 0.86 mL.
For the compound `Cc1noc2c(C(=O)c3ccccc3Br)noc12`, the Activity was 0.65 mL in the experiment on Rattus norvegicus [1], 0.5 mL in the experiment on Rattus norvegicus [2], 0.51 mL in the experiment with Rattus norvegicus [3] and 0.68 mL in the experiment with Rattus norvegicus [4].
As to `Cc1noc2c(C(=O)c3ccc(N(C)C)cc3)noc12`, the Activity came to 0.63 mL with Rattus norvegicus [1], 0.78 mL in the experiment on Rattus norvegicus [2], 0.55 mL in the experiment on Rattus norvegicus [3] and 0.83 mL with Rattus norvegicus [4].
